Results published in ChEMBL document CHEMBL5252536, “Discovery of VU0467485/AZ13713945: An M4 PAM Evaluated as a Preclinical Candidate for the Treatment of Schizophrenia” (ACS Med Chem Lett, 2017).

Columns and labels:
[1] = Fraction unbound in rat brain incubated for 6 hrs by LC/MS/MS analysis; format: ADME, tissue-based
Rattus norvegicus = assay: Antipsychotic activity in MK-801-induced hyperlocomotion activity in rat assessed as minimum effective dose administered orally preincubated for 30 mins followed by MK-801 addition and measured after 60 mins by open field test; format: functional; conditions: 1.5 h, route po, time 90 min, read-out: MED
CHO = assay: Positive allosteric modulator activity at cynomolgus monkey M4 receptor expressed in CHO cells co-expressing Gqi5 assessed as maximal response to ACh by calcium mobilization assay relative to contol; format: cell-based; conditions: Macaca fascicularis, filed as positive allosteric modulator
Cytochrome P450 2D6 [2] = target: T1, Cytochrome P450 2D6 (Homo sapiens, UniProt P10635); assay: […] of human CYP2D6 mediated drug metabolism incubated for 5 mins followed by NADPH addition measured after 1 hr by LC-UV/MS analysis relative to control; format: ADME; conditions: recombinant enzyme, 1.083 h, time 65 min
T1 sequence (P10635 whole entry): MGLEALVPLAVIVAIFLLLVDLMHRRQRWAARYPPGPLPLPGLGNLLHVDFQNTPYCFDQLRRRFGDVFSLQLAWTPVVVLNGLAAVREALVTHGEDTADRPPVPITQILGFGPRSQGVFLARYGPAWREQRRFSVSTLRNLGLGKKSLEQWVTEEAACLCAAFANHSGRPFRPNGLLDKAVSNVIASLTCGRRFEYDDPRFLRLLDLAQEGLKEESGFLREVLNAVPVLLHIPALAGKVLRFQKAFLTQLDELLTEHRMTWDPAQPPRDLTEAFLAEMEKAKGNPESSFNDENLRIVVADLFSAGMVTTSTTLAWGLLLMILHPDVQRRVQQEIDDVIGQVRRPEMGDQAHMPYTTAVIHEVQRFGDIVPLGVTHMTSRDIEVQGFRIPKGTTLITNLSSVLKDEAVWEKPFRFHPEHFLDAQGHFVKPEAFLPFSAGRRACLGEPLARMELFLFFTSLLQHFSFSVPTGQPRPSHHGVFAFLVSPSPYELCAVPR

[3] = Terminal plasma concentration in rat model of amphetamine-induced hyperlocomotion activity at 1 to 10 mg/kg, po measured after 1.5 hrs; format: ADME, organism-based; conditions: dose 1-10 mg/kg
CYP3A4 (printed CYP34A) = CYP3A4 (printed CYP34A) (Homo sapiens, UniProt P08684); assay: Activation of CYP34A in human hepatocyte using midazolam as substrate preincubated for 5 days followed by substrate addition and measured after 1 hr by LC-MS/MS analysis relative to control; format: ADME, cell-based; conditions: hepatocytes, probe midazolam, time 121 hrs
Chain of CYP3A4 (printed CYP34A) (P08684 whole entry): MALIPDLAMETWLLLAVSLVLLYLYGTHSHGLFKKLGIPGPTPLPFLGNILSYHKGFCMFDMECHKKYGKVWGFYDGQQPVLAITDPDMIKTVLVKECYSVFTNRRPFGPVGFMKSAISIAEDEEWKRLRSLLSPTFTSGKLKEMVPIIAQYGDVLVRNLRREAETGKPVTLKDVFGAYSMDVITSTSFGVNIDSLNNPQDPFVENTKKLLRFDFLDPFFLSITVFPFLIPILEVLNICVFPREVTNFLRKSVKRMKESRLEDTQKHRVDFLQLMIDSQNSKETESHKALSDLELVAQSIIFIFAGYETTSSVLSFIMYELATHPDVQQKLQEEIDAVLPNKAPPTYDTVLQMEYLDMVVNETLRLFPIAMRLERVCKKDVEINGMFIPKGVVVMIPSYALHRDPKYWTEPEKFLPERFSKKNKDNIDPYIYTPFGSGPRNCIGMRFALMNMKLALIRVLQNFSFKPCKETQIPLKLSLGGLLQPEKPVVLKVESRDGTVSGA

[4] = Genotoxicity in Salmonella typhimurium TA100 by Ames test; format: toxicity; conditions: salmonella enterica subsp. enterica serovar typhimurium
[5] = Volume of distribution at steady state in Sprague-Dawley rat at 3 mg/kg,po or 1 mg/kg,iv by LC-MS/MS analysis; format: ADME, organism-based; conditions: in vivo
[6] = Cmax in Sprague-Dawley rat at 3 mg/kg,po by LC-MS/MS analysis; format: ADME, organism-based; set-up: dose 3 mg/kg, route po; conditions: in vivo
[7] = Positive allosteric modulator activity at dog M4 receptor expressed in CHO cells co-expressing Gqi5 in presence of EC20 concentration of acetylcholine by calcium mobilization assay; format: cell-based
Cytochrome P450 2B6 = target: T2, Cytochrome P450 2B6 (Homo sapiens, UniProt P20813); assay: Activation of CYP2B6 in human hepatocyte using bupropion as substrate preincubated for 5 days followed by substrate addition and measured after 1 hr by LC-MS/MS analysis; format: ADME, cell-based
T2 sequence (P20813 whole entry): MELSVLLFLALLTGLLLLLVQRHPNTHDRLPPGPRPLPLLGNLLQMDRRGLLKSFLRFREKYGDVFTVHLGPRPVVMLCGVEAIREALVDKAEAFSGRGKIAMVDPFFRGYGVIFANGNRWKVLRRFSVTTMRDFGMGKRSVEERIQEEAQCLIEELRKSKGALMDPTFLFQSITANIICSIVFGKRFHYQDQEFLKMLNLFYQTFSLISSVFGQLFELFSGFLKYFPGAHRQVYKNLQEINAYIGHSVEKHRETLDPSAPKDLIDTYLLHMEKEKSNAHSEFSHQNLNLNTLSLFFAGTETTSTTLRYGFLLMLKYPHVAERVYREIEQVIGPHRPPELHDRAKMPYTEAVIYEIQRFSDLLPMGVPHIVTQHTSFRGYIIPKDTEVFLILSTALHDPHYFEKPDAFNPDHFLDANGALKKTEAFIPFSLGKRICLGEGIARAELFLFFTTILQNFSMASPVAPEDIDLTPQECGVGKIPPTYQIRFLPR

[8] = Apparent permeability across apical to basolateral side in human Caco-2 cells; format: ADME, cell-based
Cytochrome P450 2D6 [9] = target: T1, Cytochrome P450 2D6; assay: Inhibition of CYP2D6 in human liver microsomes using dextromethorphan as substrate incubated for 15 mins in presence of NADPH by LC/MS/MS analysis; format: ADME, Microsome
[10] = target: T3, Muscarinic acetylcholine receptor M2 (Rattus norvegicus, UniProt P10980); assay: Positive allosteric modulator activity at rat M2 receptor expressed in CHO cells co-expressing Gqi5 assessed as maximal response to ACh by calcium mobilization assay; format: cell-based
T3 sequence (P10980 whole entry): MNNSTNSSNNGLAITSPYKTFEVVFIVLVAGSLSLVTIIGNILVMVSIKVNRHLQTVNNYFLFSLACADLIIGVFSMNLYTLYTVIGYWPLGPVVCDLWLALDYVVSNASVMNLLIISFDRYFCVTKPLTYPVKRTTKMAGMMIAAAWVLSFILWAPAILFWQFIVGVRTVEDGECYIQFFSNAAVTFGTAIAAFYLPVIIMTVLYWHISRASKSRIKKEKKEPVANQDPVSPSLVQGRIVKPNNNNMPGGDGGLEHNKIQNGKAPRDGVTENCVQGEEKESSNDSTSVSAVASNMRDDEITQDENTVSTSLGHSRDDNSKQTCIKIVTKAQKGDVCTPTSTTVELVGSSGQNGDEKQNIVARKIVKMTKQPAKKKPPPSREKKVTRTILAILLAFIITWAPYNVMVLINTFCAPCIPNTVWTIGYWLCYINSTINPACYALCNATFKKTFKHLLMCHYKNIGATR

[11] = Elimination half life in Cynomolgous monkey at 0.2 mg/kg,iv by LC-MS/MS analysis; conditions: cynomolgus monkey, in vivo, read-out: beta t1/2 (converted)
[12] = target: T4, Muscarinic acetylcholine receptor M4 (Rattus norvegicus) (UniProt P08485); assay: Positive allosteric modulator activity at rat M4 receptor expressed in CHO cells co-expressing Gqi5 assessed as maximal response to ACh by calcium mobilization assay relative to contol; format: cell-based; conditions: filed as positive allosteric modulator
T4 sequence (whole entry): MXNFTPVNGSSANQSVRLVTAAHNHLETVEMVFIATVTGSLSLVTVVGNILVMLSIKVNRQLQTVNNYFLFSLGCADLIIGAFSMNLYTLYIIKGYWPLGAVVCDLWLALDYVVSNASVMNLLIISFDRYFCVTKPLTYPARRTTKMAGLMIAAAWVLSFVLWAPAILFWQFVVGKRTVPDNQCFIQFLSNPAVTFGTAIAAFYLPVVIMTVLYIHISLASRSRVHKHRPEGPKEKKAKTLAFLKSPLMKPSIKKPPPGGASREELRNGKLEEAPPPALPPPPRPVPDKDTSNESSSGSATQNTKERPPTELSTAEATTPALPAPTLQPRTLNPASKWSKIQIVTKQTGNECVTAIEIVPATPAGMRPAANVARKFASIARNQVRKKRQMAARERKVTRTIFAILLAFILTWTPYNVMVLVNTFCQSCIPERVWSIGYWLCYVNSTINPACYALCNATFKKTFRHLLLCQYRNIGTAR

Cytochrome P450 2C9 = Cytochrome P450 2C9 (Homo sapiens, UniProt P11712); assay: Inhibition of CYP2C9 in human liver microsomes using diclofenac as substrate incubated for 15 mins in presence of NADPH by LC/MS/MS analysis; format: ADME, Microsome
Chain of Cytochrome P450 2C9 (P11712 whole entry): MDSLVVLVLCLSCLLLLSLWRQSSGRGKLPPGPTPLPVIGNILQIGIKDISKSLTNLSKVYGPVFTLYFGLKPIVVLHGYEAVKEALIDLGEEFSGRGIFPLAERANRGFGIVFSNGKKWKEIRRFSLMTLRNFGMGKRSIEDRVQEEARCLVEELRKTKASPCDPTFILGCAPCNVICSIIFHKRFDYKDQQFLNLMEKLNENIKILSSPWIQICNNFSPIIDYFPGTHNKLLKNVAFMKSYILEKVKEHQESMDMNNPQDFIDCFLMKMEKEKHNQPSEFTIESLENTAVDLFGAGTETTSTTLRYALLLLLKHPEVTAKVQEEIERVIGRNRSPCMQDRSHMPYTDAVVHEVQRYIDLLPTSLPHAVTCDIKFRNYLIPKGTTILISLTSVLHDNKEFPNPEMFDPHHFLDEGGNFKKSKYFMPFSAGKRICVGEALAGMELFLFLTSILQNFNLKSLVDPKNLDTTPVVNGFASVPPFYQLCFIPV

[13] = Clearance in Cynomolgous monkey plasma at 0.2 mg/kg,iv by LC-MS/MS analysis; conditions: cynomolgus monkey
[14] = Volume of distribution at steady state in Beagle dog at 3 mg/kg,po or 1 mg/kg,iv by LC-MS/MS analysis; format: ADME, organism-based, Canis lupus familiaris; conditions: in vivo
[15] = Positive allosteric modulator activity at cynomolgus monkey M2 receptor expressed in CHO cells co-expressing Gqi5 in presence of EC20 concentration of acetylcholine by calcium mobilization assay; format: cell-based; conditions: Macaca fascicularis

fraction unbound at 6 h [1]: 0.037
Activity (Cytochrome P450 2D6 [2]): 0.2%
concentration at 1.5 h [3]: 1800 nM
Emax at 1 h (CYP3A4 (printed CYP34A)): ≤ 1%
Vdss [5]: 1.5 L/kg
Cmax [6]: 1200 nM
EC50 [7]: 0.087 µM
EC50 (Cytochrome P450 2B6): > 50 µM
Papp A→B [8]: 31 ×10⁻⁶ cm/s
IC50 (Cytochrome P450 2D6 [9]): > 30 µM
EC50 [10]: > 30 µM
half-life [11]: 28.8 min
Activity [12]: 68.7%
IC50 (Cytochrome P450 2C9): > 30 µM
clearance [13]: 25 mL/min/kg
Vdss [14]: 1.5 L/kg
EC50 [15]: > 30 µM
Compound: COc1ccc(CNC(=O)c2sc3nnc(C)c(C)c3c2N)cc1F
minimal effective dose (Rattus norvegicus): 30 mg/kg
Activity (CHO): 74%
Activity [4]: Non-Toxic
